The source of these data is patent publication US7951956B2, “Benzoimidazole compound capable of inhibiting prostaglandin D synthetase” (Taiho Pharmaceuticals Co., Ltd., priority 2005, dated 2011).

pIC50: −log10 of the molar value. A value given as a limit tells only on which side of the number the result lay.

The subject of data set [1] is antigen-induced nasal congestion. The experiment in a line: Ameliorating activity for antigen-induced nasal congestion in guinea pig (Experiment 3). The data set is classed as in vivo, Std:Hartley guinea pigs. Conditions: for AUC3-7 hr (nRaw increase %): 3 to 7 hours after induction. On the procedure: A physiological saline solution containing 1 mg/mL of ovalbumin was subcutaneously injected into the backs of 5-week-old male Std:Hartley guinea pigs in an amount of 1 mL/body for active sensitization (primary sensitization). One week and two weeks after primary sensitization, 20 μL each of a physiological saline solution containing 10 mg/mL of ovalbumin was instilled into the nasal cavities using a micropipette (sensitization by nasal administration). Three weeks after primary sensitization, 10 μL each of a physiological saline solution containing 20 mg/mL of ovalbumin was instilled into the nasal cavities using a micropipette to induce a rhinitis reaction.
Before, and 10 minutes and 2, 3, 4, 5, 6 and 7 hours after nasal instillation of ovalbumin, the nasal airway resistance per 100 breaths was determined using a comprehensive respiratory function analysis system (“Pulmos-I”, a product of M.I.P.S. Co., Ltd.), and the average at each measurement time was calculated and expressed as nRaw. The increase % of nRaw was calculated according to the following formula. Increase(%)of nRaw at each measurement time=(nRaw at each measurement time−nRaw before induction)÷nRaw before induction×100
Nasal congestion was evaluated by measuring the area under the curve of nRaw increase % during the period of 3 to 7 hours after induction (AUC3-7 hr). “I3-7 hr” refers to the increase of nRaw during the period of 3 to 7 hours after induction. AUC3-7hr=½(I3hr+2×I4hr+2×I5hr+2×I6hr+I7hr)
To confirm the effects on nasal congestion by inhibition of PGD2 production, Compound 15 was selected as a representative compound and orally administered once a day for 15 consecutive days from the day of nasal sensitization performed 1 week after primary sensitization to the day of induction performed 3 weeks after primary sensitization. On the nasal sensitization days (1 week and 2 weeks after primary sensitization) and the induction day, compound 15 was orally administered 1 hour before intranasal instillation of ovalbumin.

In data set [2] the target is human hematopoietic synthase (Homo sapiens, UniProt O60760). Put plainly: Hematopoietic synthase inhibitory activity (Experiment 1). It counts as biochemical. Conditions: [14C] prostaglandin H2 10 μM, preincubated at 25° C. for 5 minutes, 1 minute reaction; read-out: Concentration of Pharmaceutical Compound Required to Inhibit 50% of Hematopoietic Synthase. How it is done: Experiment 1 was carried out according to the method of Urade, Y. et al. (J. Biol. Chem. 262, 3820-3825, (1987)). More specifically, the reaction mixture (49 μL); 100 mM Tris-HCl (pH 8.0), 1 mM reduced glutathione, 0.1 mg/mL γ-globulin, and human hematopoietic synthase (quantum sufficient), and a test compound (final concentration: 0.01-100 μM) were preincubated at 25° C. for 5 minutes. In place of the test compound, a DMSO solution (final concentration: 1%) was used in the solvent control group (Control Group). Subsequently, 1 μL of [^14C] prostaglandin H2 (final concentration: 10 μM) was added to start the reaction. One minute after the start of the reaction, 250 μL of a reaction stopper solution (diethylether/methanol/1M citric acid (30/4/1) cooled to −20° C. was added to stop the reaction.
Sequence of human hematopoietic synthase (O60760 whole entry): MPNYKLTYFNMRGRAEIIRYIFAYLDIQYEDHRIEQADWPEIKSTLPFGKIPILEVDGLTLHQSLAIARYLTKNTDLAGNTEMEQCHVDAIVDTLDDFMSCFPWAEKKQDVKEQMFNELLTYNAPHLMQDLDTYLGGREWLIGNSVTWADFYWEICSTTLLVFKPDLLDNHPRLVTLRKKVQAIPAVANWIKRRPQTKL
Thereafter, 50 μL of the upper layer portion (organic solvent phase) was applied to a TLC plate and developed at −20° C. for 45 minutes (developer: diethylether/methanol/acetic acid (capacity ratio=90/2/1)). After drying the plate, the plate was exposed to an imaging plate for 1 to 24 hours, and the radioactivity corresponding to prostaglandin D2 was analyzed using an image analyzer (product of FUJIFILM Corporation). The area (%) occupied by the prostaglandin D2 band per lane was calculated, and the concentration of the test compound required to inhibit 50% of the hematopoietic synthase (IC50 value) was calculated by comparison with the Control group in each experiment.

Data set [3] has as its system PGD2 amount in bronchoalveolar lavage fluid. The experiment in a line: Inhibitory activity for prostaglandin D2 production into bronchoalveolar lavage fluid in rats (Experiment 2). It counts as in vivo, Brawn Norway rats. The note with it: 10 mg/kg orally two hours before antigen inhalation; lavage fluid one hour after ovalbumin inhalation; sensitized rats. On the procedure:
A physiological saline solution containing 1 mg of ovalbumin and 4 mg of alum was subcutaneously injected into the backs of 7-week-old male Brawn Norway rats in an amount of 1 mL/body, and 0.06 mg of killed pertussis bacteria were intraperitoneally injected into each rat to perform active sensitization. Fourteen days after sensitization, the rats inhaled 2% ovalbumin for 10 minutes. One hour after inhalation, bronchoalveolar lavage fluid was collected. The amount of PGD2 in the bronchoalveolar lavage fluid was determined using an EIA kit. Two hours before antigen inhalation, a test compound (10 mg/kg) was orally administered.

For the molecule `O=C(Nc1cccc2c(=O)cc(-c3nnn[nH]3)oc12)c1ccc(OCCCCc2ccccc2)cc1` [Pranlukast, reference compound], in data set [1] (30 mg/kg orally), the “Inhibition (%) of nasal congestion (AUC3-7 hr)” value (shortened to “Inhibition (%) … (AUC3-7 hr)”) is 81.5% and the “AUC3-7 hr (nRaw increase %)” value is on record as 126.3 ± 41.7^$$ % · hr.

As to `Cc1[nH]c(C(=O)N2CCC(C(=O)NCCN(C)C)CC2)c(C)c1-c1nc2cc(C(=O)c3ccccc3)ccc2[nH]1` [Compound 46, N-Dimethylaminoethyl-1-((4-(5-benzoylbenzimidazol-2-yl)-3,5-dimethylpyrrol-2-yl)-carbonyl)piperidine-4-carboxamide], the melting point – broadly, the temperature of the solid-liquid transition – fell in the range of 258 to 260 °C. For the same molecule, the pIC50 in data set [2] was 6.12.

`Cc1[nH]c(/C=C/C#N)c(C)c1-c1nc2cc(C(=O)c3ccccc3)ccc2[nH]1` [Compound 9, 2-(2-Acrylonitrile-3,5-dimethyl-pyrrol-4-yl)-5-benzoylbenzimidazole] displayed a melting point of 201 to 203 °C. In addition, the pIC50 in data set [2] is 6.96.

Consider `Cc1[nH]c(C(=O)N2CCOCC2)c(C)c1-c1nc2cc(C(=O)c3ccccc3)ccc2[nH]1` [Compound 40, ((4-(5-benzoylbenzimidazol-2-yl)-3,5-dimethylpyrrol-2-yl)-carbonyl)morpholine], for which the pIC50 in data set [2] is 6.23. Besides, the “Inhibition (%) of the PGD2 Amount in Bronchoalveolar Lavage Fluid” value (“Inhibition (%) of the PGD2 Amount” below) in data set [3] was 65%.

In turn, `O=C(c1ccccc1)c1ccc2[nH]c(-c3c[nH]c(C(=O)O)c3)nc2c1` [Compound 5, 4-(5-Benzoylbenzimidazol-2-yl)-pyrrole-2-carboxylic acid] showed a melting point of 239 to 241 °C. Besides, the pIC50 in data set [2] is 5.84.

As to `Cc1[nH]c(C#N)c(C)c1-c1nc2cc(C(=O)c3ccccc3)ccc2[nH]1` [Compound 13, 2-(2-Cyano-3,5-dimethyl-pyrrol-4-yl)-5-benzoylbenzimidazole], the melting point was 159 to 163 °C. Also, the pIC50 in data set [2] is 6.27. Also, the “Inhibition (%) of the PGD2 Amount” value in data set [3] came to 48%.

Molecule `CON(C)C(=O)c1[nH]c(C)c(-c2nc3cc(C(=O)c4ccccc4)ccc3[nH]2)c1C` [Compound 15, (N-Methoxy-N-methyl)-4-(5-benzoylbenzimidazol-2-yl)-3,5-dimethylpyrrole-2-carboxamide] yielded a melting point of 127 to 132 °C. Further, the pIC50 in data set [2] is 6.59. In data set [3], the “Inhibition (%) of the PGD2 Amount” value was >72%. Also, in data set [1] (3 mg/kg orally), the “Inhibition (%) … (AUC3-7 hr)” value is 60.8% and the “AUC3-7 hr (nRaw increase %)” value is on record as 273.9 ± 69.1 % · hr. Moreover, in data set [1] (10 mg/kg orally), the “Inhibition (%) … (AUC3-7 hr)” value was found to be 76.5% and the “AUC3-7 hr (nRaw increase %)” value is listed as 153.5 ± 27.1 % · hr. Also, in data set [1] (30 mg/kg orally), the “Inhibition (%) … (AUC3-7 hr)” value came out at 92.8% and the “AUC3-7 hr (nRaw increase %)” value came out at 65.7 ± 28.9 % · hr.

In the case of `Cc1oc(C(=O)N2CCCC2)c(C)c1-c1nc2cc(C(=O)c3ccccc3)ccc2[nH]1` [Compound 3, (4-(5-Benzoylbenzimidazol-2-yl)-3,5-dimethyl-2-furanylcarbonyl)pyrrolidine], the pIC50 in data set [2] is 6.75. Besides, the “Inhibition (%) of the PGD2 Amount” value in data set [3] was found to be 36%.

As to `O=C(O)CCn1c2c(c3ccccc31)C[C@H](NS(=O)(=O)c1ccc(F)cc1)CC2` [Ramatroban, reference compound], in data set [1] (30 mg/kg orally), the “Inhibition (%) … (AUC3-7 hr)” value is given as 70.9% and the “AUC3-7 hr (nRaw increase %)” value is listed as 183.4 ± 29.3^$$ % · hr.

For `Cc1[nH]c(C(=O)N2CCC=N2)c(C)c1-c1nc2cc(C(=O)c3ccccc3)ccc2[nH]1` [Compound 42, ((4-(5-Benzoylbenzimidazol-2-yl)-3,5-dimethylpyrrol-2-yl)-carbonyl)pyrazoline], in data set [2], the pIC50 was 7.20. The “Inhibition (%) of the PGD2 Amount” value in data set [3] turned out to be 88%.

As to `O=C(c1ccccc1)c1ccc2[nH]c(-c3ccc(C(=O)O)o3)nc2c1` [Compound 57, 5-(5-Benzoylbenzimidazol-2-yl)-furan-2-carboxylic acid], the melting point amounted to 170 °C. For the same molecule, the pIC50 in data set [2] is 5.38.

As for `O=C(c1ccccc1)c1ccc2[nH]c(-c3c[nH]c(C(=O)N4CCCC4)c3)nc2c1` [Compound 6, ((4-(5-Benzoylbenzimidazol-2-yl)-pyrrol-2-yl)-carbonyl)pyrrolidine], the melting point was 160 to 162 °C. The pIC50 in data set [2] was 5.76.

`CCOC(=O)c1c(C)[nH]c(-c2nc3cc(C(=O)c4ccccc4)ccc3[nH]2)c1C` [Compound 53, 5-(5-Benzoylbenzimidazole-2-yl)-2,4-dimethylpyrrole-3-carboxylic acid ethyl ester] registered a melting point of 185 to 187 °C. The pIC50 in data set [2] is 5.51.

With `CCOC(=O)c1[nH]c(C)c(-c2nc3cc(Oc4ccccc4)ccc3[nH]2)c1C` [Compound 68, 4-(5-Phenoxybenzimidazole-2-yl)-3,5-dimethylpyrrole-2-carboxylic acid ethyl ester], the melting point lay within 239 to 242 °C. In addition, the pIC50 in data set [2] is 6.68.

Turning to `Cc1c[nH]c(C)c1-c1nc2cc(C(=O)c3ccccc3)ccc2[nH]1` [Compound 7, 2-(2,4-Dimethyl-pyrrol-3-yl)-5-benzoylbenzimidazole], the melting point was 207 to 214 °C. In data set [2], the pIC50 was 6.23.
